This note sets out measurements from publication PMC5702532 (Bioconjugate chemistry, 2016).

Bridge positions count the residues as written; N and C are the ends. Ends that are not written are not given here.

Assay [1] concerns the target XPNPEP1, APaseP human recombinant protein (Homo sapiens, UniProt Q9NQW7). The assay is described as follows: Biacore binding affinity assay. (In general: SPR reads the build-up and loss of mass on a sensor chip optically.)
In assay [2] the test system is MCF-7, MDA-MB-231, A-549 and PC-3 cells. The assay is described as follows: Confocal fluorescence detection of cell entry in live carcinoma cells. The format is cell-based, human. The following applies: 10 μM in media for 60 min; live cells washed 3×; confocal microscopy, TAMRA filter; breast (MCF-7, MDA-MB-231), lung (A-549), prostate (PC-3).

Chain of XPNPEP1, APaseP human recombinant protein (Q9NQW7 whole entry): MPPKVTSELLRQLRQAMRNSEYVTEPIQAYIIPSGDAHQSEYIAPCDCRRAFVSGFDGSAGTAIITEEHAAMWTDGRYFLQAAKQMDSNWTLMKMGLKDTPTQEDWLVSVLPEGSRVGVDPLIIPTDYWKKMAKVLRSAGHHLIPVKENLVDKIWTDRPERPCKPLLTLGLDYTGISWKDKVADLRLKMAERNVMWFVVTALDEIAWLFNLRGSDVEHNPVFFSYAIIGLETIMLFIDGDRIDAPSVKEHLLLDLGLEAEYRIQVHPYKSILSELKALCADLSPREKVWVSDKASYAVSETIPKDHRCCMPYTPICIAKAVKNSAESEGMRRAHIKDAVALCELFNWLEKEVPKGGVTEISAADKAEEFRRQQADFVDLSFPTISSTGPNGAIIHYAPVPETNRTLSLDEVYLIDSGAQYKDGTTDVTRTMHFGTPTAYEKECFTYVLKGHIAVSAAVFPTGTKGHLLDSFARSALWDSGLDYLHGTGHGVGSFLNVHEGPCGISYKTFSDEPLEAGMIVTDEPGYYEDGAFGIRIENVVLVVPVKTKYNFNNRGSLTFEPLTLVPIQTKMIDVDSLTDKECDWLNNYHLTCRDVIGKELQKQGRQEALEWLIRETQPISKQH

Turning to RPPGFSPFR [Bradykinin], in assay [1], the Kd came to 15.3 ± 8 µM. Turning to CPGPEGAGC (disulfide 1-9 (inferred)), the “Cell entry (fluorescence detection)” value in assay [2] was “did not enter breast-derived cells”.

Broadly, the Kd is the equilibrium constant for the complex coming apart.
